In this test the target is MBL Monoclonal anti-phosphotyrosine antibody (clone 6D12). The test can be described thus: Competitive displacement of P-Tyr-F from MBL antibody, fluorescence quenching. In kind it is binding. The conditions noted are these: displacement of P-Tyr-F 1.7 nM from MBL antibody 7.1 nM sites, nM sites (normality), read-out: MBL Monoclonal Kd, nM Φ. Here is the method:
FIGS. 5A and 5B: […] MBL antibody, 7.1 nM sites and P-Tyr-F, 1.7 nM were preincubated, and displacement initiated by the addition of a concentrated solution of phosphotyrosine. The increase in emission intensity and decrease in FP were monitored as a function of added phosphoryltyrosine. The data were analyzed as described in FIG. 3. FIGS. 7A, 7B, 7C, and 7D: FIGS. 7A, 7B, 7C, and 7D are graphs showing the competitive displacement of P-Tyr-F from MBL antibody by phosphorylated JAK-2 peptide substrates JAK-2(a) (FIGS. 7A and 7B) and JAK-2(b) (FIGS. 7C and 7D). All procedures were as described in FIG. 5. For both peptides, fixed antibody=7.1 nM sites and P-Tyr-F=1.7 nM. Antibody binding to the fluoresceinated phosphorylamino acids was monitored by adding successive small volumes of the antibody stock solution to a cuvette containing a fixed amount of fluoresceinated phosphorylamino acid in two milliliters of pH 7.4 buffer (25 mM Tris and 25 mM NaCl adjusted to pH 7.4 with HCl). The fluorescence polarization, anisotropy, and the intensity—the sum of vertically and horizontally polarized emissions—were recorded one minute after each addition. The dilution produced by the addition of the antibody necessitated a slight correction for both the concentrations and the intensity readings but not for the polarization since the latter is independent of the fluorophore concentration. […]

The Kd is the concentration at which binding is half-saturated.

Regarding `NC(Cc1ccc(OP(=O)(O)O)cc1)C(=O)O` (stereo not shown) [Phosphoryltyrosine], the Kd worked out at 5.4 ± 0.5 nM.

The values above are taken from US6818413B2, “Fluorescence-based high throughput screening assays for protein kinases and phosphatases” (Pharmacia and Upjohn Company, priority 1997, dated 2004).
